For this assay, the target named is Sodium/potassium-transporting ATPase subunit alpha-1 (Canis lupus familiaris, UniProt P50997). Put plainly: Inhibition of Dog Renal Na+/K+ ATPase Activity.

The structures appear in SMILES notation.

What is called IC50 is the midpoint of a concentration-inhibition curve. A high value points to lower potency.

Experimental: Increasing concentrations of the standard ouabain, or tested compound, were incubated with 0.3 μg of purified dog kidney enzyme for 10 min at 37° C. in 120 μl final volume of a medium containing 140 mM NaCl, 3 mM MgCl2, 50 mM Hepes-Tris, 3 mM ATP, pH 7.5. Then, 10 μl of a solution containing 10 mM KCl and 20 nCi of 32P-ATP (3-10 Ci/mmol, Perkin Elmer) were added. The reaction was allowed to continue for 15 min at 37° C. and then stopped by acidification with 20% v/v ice-cold perchloric acid. 32P was separated by centrifugation with activated Charcoal (Norit A, Serva) and the radioactivity was counted. The inhibitory activity was expressed as percent of the control samples carried out in the absence of ouabain, or tested compound.

Molecule `CCCCC(C(=O)O)C1CC[C@@]2(C)C(C1)[C@H](O)C[C@@H]1[C@@H]2CC[C@]2(C)C(=O)CC[C@@H]12` (some centres not stated) [US12503484, Compound CVie219] came in with a 50% inhibitory concentration (IC50) of over 100 µM. Molecule `CCCC(=O)OCCC1CC[C@@]2(C)C(C1)[C@@H](O)C[C@@H]1[C@@H]2CC[C@]2(C)C(=O)CC[C@@H]12` (some centres not stated) [US12503484, Compound CVie217] returned an IC50 of over 100 µM.

Values taken from BindingDB's records for patent US12503484 (Seismic Pharmaceuticals, 2025).
